According to article PMC9656787, “Design, Synthesis and Biological Evaluation of Novel 1,3,5-Triazines: Effect of Aromatic Ring Decoration on Affinity to 5-HT7 Receptor” (International Journal of Molecular Sciences, 2022):

What was measured:
Danio rerio [1] = assay: Fish embryo toxicity (FET) test, OECD 236, mortality; type: in vivo; settings: 96 hpf larvae, 96 h incubation at 28 °C
Protocol: (§1) The compounds were evaluated for their ecotoxicity on the Danio rerio experimental model. OECD 236 test with modifications was applied. Both compounds were found cardiotoxic within the non-toxic range, based on the heart rate measurement. For the compound 2, 5 µg/mL was found cardiotoxic (Figure 10) and for 12, 7.5 µg/mL (Figure 11). The results were confirmed by malformations observation. […] Moreover, scoliosis (S) and tail autophagy (TA) were also noted.
To determine the toxicity of the compounds, the fish embryo toxicity (FET) test was performed on zebrafish (Danio rerio) according to OECD Test Guideline 236. The collected embryos were transferred to a Petri dish with E3 medium (5 mM NaCl, 0.33 mM MgCl2, 0.33 mM CaCl2, 0.17 mM KCl; pH 7.2) and then placed in 6-well plates, 10 embryos per well. Stock solutions 2 and 12 were prepared in DMSO. […] At the end of the exposure period (96 hpf–hours postfertilization), acute toxicity was determined based on a positive outcome in any of the four visual indicators of lethality, including the coagulation of fertilized eggs, lack of somite formation, lack of detachment of the tailbud from the yolk sac and lack of heartbeat. The value of LD50 was calculated. Heartbeats were recorded to observe cardiotoxic effects. […]

[2] = Metabolic stability in mouse liver microsomes (MLMs), UHPLC-MS; type: in vitro ADME; settings: for Metabolic Pathway: metabolites M1, M2 ... in order, after incubation with MLMs; for remaining at 2 h: mouse, liver microsomes; for remaining at 2 h / % Remaining: original compound remaining after 2 h (120 min) incubation with MLMs
Protocol: It seems, however, that substituents at the B ring of the ligands have a more important role. […] The data correspond to our previous results, in which substituents at the B ring increased metabolic stability. Potential sites in the molecules sensitive to enzyme activity and leading to degradation were proposed using an in silico approach, also with MetaSite 6.0.1 (Figure 7).
(§2) All assays were performed according to the protocols described previously.

5-HT7 receptor = target: T1, 5-HT7 receptor (Homo sapiens, UniProt P34969); assay: Radioligand binding assay, 5-HT7 receptor; settings: for Ki: mean ± SD, triplicate at 7 concentrations, Cheng-Prusoff, read-out: Affinity Ki 5-HT7R
T1 construct: host or cells: cell membranes from cultured cells
Protocol: (§3) The affinity of the studied compounds to 5-HT1A, 5-HT2A, 5-HT6, 5-HT7, and D2 receptors was evaluated by a radioligand assay, as reported previously (Table 1). Each compound was tested in triplicate at seven concentrations (from 0.1 nM to 100 µM). Inhibition constants (Ki) were calculated from the Cheng–Prusoff equation [23].
(§4) The cell culture, cell membranes, and radioligand binding assays were performed in accordance with standard protocols.

5-HT2A receptor = target: T2, 5-HT2A receptor (Homo sapiens, UniProt P28223); assay: Radioligand binding assay, 5-HT2A receptor; settings: mean ± SD, triplicate at 7 concentrations, Cheng-Prusoff; read-out: Affinity Ki 5-HT2AR
T2 construct: host or cells: cell membranes from cultured cells
Protocol: as §3, §4

5-HT1A receptor = target: T3, 5-HT1A receptor (Homo sapiens, UniProt P08908); assay: Radioligand binding assay, 5-HT1A receptor; settings: mean ± SD, triplicate at 7 concentrations, Cheng-Prusoff; read-out: Affinity Ki 5-HT1AR
T3 construct: host or cells: cell membranes from cultured cells
T3 sequence (P08908 1-422): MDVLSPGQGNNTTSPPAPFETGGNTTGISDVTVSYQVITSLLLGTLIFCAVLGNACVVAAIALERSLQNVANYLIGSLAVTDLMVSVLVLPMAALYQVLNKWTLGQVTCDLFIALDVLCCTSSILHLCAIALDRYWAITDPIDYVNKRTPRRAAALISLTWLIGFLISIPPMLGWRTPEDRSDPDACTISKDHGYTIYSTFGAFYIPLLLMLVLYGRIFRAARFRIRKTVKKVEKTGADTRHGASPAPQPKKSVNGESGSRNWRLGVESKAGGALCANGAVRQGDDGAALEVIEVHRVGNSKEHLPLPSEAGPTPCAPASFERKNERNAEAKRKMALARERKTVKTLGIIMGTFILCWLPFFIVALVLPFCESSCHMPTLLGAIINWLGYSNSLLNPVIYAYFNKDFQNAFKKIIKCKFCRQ
Protocol: as §3, §4

5-HT6 receptor = target: T4, 5-HT6 receptor (Homo sapiens, UniProt P50406); assay: Radioligand binding assay, 5-HT6 receptor; settings: mean ± SD, triplicate at 7 concentrations, Cheng-Prusoff; read-out: Affinity Ki 5-HT6R
T4 construct: host or cells: cell membranes from cultured cells
Protocol: as §3, §4

CYP3A4 = CYP3A4 (Homo sapiens, UniProt P08684); assay: CYP3A4 activity (drug-drug interaction) assay; type: in vitro ADME; settings: for inhibition activity toward CYP3A4 (in words): compound at 1 µM (concentration of ketoconazole) or lower; for %CYP3A4 activity: negative control = 100%
Protocol: Potential drug–drug interactions (DDIs) are an important aspect that should be considered when designing new compounds. Isoenzyme CYP3A4 is one of the varieties of enzymes responsible for xenobiotic metabolism. We evaluated active compounds 2 and 12 in terms of affinity toward this isoenzyme (Figure 8).
as §2
Figure 8 The influence of 2 (left), 12 (right), and ketoconazole (KE) on CYP3A4 activity. Statistical significance (** p < 0.01, **** p < 0.0001) was analyzed by Graph Pad Prism 8.0.1 software using One-way ANOVA and Bonferroni’s Multiple Comparison Post Test in comparison with the negative control (100% of CYP3A4 activity). The compounds were examined in triplicate.

Danio rerio [3] = assay: In vivo cardiotoxicity (heart rate, malformations) in zebrafish embryos; settings: 96 h
Protocol: as §1
To determine the toxicity of the compounds, the fish embryo toxicity (FET) test was performed on zebrafish (Danio rerio) according to OECD Test Guideline 236. The collected embryos were transferred to a Petri dish with E3 medium (5 mM NaCl, 0.33 mM MgCl2, 0.33 mM CaCl2, 0.17 mM KCl; pH 7.2) and then placed in 6-well plates, 10 embryos per well. Stock solutions 2 and 12 were prepared in DMSO. In these experiments, the range of different concentrations of the solutions was prepared by dissolving stock solutions in the E3 medium each time directly before addition to the wells. The solutions were changed once daily, and the embryos were maintained in the incubator at 28.5 °C. At the end of the exposure period (96 hpf–hours postfertilization), acute toxicity was determined based on a positive outcome in any of the four visual indicators of lethality, including the coagulation of fertilized eggs, lack of somite formation, lack of detachment of the tailbud from the yolk sac and lack of heartbeat. The value of LD50 was calculated. Heartbeats were recorded to observe cardiotoxic effects. Moreover, images of the fish from each group were taken at the final time point to monitor the occurrence of developmental malformations. For the observations, a Discovery V8 Stereo optical microscope and Zeiss hardware were used. A dose-response curve was generated using Prism 8.0.1 (GraphPad Software) by fitting a sigmoid curve model to experimental data points. The concentrations of the compounds of interest causing 50% mortality (LD50) of 96 hpf larvae of Danio rerio were calculated.

HepG2 cell line = assay: Hepatotoxicity: HepG2 cell line viability; type: cell-based; settings: 72 h incubation; for cell viability (in words): HepG2, 100 µM; for effect on HepG2 cells at lower concentrations (in words): HepG2, <10 µM
Protocol: (§5) The tested compounds 2 and 12 were evaluated in terms of cytotoxicity against the HepG2 cell line to assess their hepatotoxic potential (Figure 9). […].
as §2
(§6) Figure 9 The effect of cytostatic drug doxorubicin and 2 (left), 12 (right) on hepatoma HepG2 cell line viability after 72 h of incubation at 37°, 5% CO2. The statistical significance (GraphPad Prism 8.0.1) was evaluated by a one–way ANOVA, followed by Bonferroni’s Comparison Test (* p < 0.05, ** p < 0.01, and **** p < 0.0001 compared with negative control DMSO 1% in growth media.

[4] = Hepatotoxicity: HepG2 cell line viability; type: cell-based; settings: human, HepG2 cells; HepG2, 50 µM, 72 h incubation
Protocol: as §5, §2, §6

D2 receptor = target: T5, D2 receptor (Homo sapiens, UniProt P14416); assay: Radioligand binding assay, D2 receptor; settings: mean ± SD, triplicate at 7 concentrations, Cheng-Prusoff; read-out: Affinity Ki D2R
T5 construct: host or cells: cell membranes from cultured cells
Protocol: as §3, §4

Chain of CYP3A4 (P08684 whole entry): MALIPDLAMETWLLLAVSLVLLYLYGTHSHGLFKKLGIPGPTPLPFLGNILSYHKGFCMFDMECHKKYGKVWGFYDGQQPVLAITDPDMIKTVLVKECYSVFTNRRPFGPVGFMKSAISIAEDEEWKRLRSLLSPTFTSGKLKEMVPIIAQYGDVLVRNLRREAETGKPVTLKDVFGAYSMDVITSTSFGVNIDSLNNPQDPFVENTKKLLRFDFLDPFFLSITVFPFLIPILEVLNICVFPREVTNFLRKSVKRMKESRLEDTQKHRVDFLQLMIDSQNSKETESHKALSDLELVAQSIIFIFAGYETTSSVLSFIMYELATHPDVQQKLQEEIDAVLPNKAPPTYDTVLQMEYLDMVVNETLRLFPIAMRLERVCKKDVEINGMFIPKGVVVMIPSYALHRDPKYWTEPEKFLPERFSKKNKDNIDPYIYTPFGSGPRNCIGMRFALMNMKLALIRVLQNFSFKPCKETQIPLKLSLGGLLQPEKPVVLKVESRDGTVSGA
T1 sequence (P34969 1-432 limits assumed): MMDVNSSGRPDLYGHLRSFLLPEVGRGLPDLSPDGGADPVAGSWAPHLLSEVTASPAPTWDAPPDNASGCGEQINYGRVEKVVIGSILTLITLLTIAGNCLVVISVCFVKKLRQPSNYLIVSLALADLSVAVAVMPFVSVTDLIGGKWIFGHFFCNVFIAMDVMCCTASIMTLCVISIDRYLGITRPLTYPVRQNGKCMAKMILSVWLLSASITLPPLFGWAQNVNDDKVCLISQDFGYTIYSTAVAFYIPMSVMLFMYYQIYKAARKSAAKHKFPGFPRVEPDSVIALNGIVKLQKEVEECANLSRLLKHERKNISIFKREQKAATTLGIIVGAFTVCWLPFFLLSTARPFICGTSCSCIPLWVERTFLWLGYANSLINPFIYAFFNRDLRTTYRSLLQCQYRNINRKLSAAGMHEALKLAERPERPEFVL
T2 sequence (P28223 whole entry): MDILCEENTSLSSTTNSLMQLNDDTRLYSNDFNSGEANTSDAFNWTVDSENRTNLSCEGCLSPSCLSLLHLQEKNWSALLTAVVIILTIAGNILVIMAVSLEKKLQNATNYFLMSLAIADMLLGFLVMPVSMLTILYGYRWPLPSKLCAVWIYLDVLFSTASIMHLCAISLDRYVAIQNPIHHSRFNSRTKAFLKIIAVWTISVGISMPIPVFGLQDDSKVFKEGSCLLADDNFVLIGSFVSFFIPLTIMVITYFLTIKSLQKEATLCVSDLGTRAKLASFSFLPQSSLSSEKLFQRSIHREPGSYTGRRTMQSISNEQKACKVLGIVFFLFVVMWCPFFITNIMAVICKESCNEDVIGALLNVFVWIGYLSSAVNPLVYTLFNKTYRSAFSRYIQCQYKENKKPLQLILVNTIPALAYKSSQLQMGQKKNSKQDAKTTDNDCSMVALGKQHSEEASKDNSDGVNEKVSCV
T4 sequence (P50406 whole entry): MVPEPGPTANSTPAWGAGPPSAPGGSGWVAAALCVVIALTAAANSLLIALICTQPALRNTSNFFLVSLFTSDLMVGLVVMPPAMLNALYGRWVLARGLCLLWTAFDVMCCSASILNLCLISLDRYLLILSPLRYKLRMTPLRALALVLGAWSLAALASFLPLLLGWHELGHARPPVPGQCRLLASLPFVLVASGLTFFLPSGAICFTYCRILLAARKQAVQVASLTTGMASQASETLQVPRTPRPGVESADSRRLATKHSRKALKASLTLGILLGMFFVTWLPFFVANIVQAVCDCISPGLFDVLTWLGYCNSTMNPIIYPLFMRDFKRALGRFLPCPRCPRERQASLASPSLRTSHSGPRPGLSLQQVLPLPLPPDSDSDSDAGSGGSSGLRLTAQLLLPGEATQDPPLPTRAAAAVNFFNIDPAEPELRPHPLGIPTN
T5 sequence (P14416 whole entry): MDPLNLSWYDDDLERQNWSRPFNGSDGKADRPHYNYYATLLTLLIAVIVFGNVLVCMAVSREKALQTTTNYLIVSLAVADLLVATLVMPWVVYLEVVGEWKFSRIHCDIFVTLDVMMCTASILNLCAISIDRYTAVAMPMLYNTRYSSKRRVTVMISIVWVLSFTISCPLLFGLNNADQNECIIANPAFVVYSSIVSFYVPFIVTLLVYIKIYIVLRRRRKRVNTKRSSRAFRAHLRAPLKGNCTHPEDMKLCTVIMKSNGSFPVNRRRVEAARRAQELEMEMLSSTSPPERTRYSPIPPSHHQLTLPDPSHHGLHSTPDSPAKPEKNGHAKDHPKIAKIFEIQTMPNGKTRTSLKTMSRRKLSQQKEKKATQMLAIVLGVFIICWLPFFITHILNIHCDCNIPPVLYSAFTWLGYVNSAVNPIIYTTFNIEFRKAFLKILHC

| SMILES | LD50 (mortality) (Danio rerio [1]) [µg/mL] | Metabolic Pathway [2] | remaining at 2 h [2] [%] | % Remaining [2] [%] | Ki (5-HT7 receptor) [nM] | Ki (5-HT2A receptor) [nM] | Ki (5-HT1A receptor) [nM] | Ki (5-HT6 receptor) [nM] | inhibition activity toward CYP3A4 (in words) (CYP3A4) | %CYP3A4 activity (CYP3A4; compound at 10 µM) [%] | %CYP3A4 activity (CYP3A4; compound at 25 µM) [%] | concentration at which pericardial edema (PE) was observed (Danio rerio [3]) [ng/mL] | concentration found cardiotoxic (heart rate measurement) (Danio rerio [3]) [ng/mL] | cell viability (in words) (HepG2 cell line) | effect on HepG2 cells at lower concentrations (in words) (HepG2 cell line) | viability at 72 h, 50 µM [4] [%] | Ki (D2 receptor) [nM] | activity with respect to 5-HT7R (in words) (5-HT7 receptor; SAR discussion of radioligand data) |
| --- | --- | --- | --- | --- | --- | --- | --- | --- | --- | --- | --- | --- | --- | --- | --- | --- | --- | --- |
| Cl.Nc1nc(NCCc2ccccc2)nc(NCCc2c[nH]c3ccc(F)cc23)n1 [Compound 2, N^2-(2-(5-Fluoro-1H-Indol-3-yl)ethyl)-N^4-Phenethyl-1,3,5-Triazine-2,4,6-Triamine Hydrochloride] | 4.869 | hydroxylation ketone formation double hydroxylation dehydrogenation dehydrogenation double hydroxylation hydroxylation ketone formation and hydroxylation hydroxylation | 20 | 19.79 | 8 ± 2 | 413 ± 67 | 13900 | 505 ± 61 | no or slight inhibition activity | 50 | < 15 | 5000 | 5000 | practically no viable | proliferative activity | 35 |  |  |
| Cl.Nc1nc(NCCNc2ccc(F)cc2)nc(NCCc2c[nH]c3ccccc23)n1 [Compound 12, N^2-(2-(1H-Indol-3-yl)ethyl)-N^4-(2-((4-Fluorophenyl)amino)ethyl)-1,3,5-Triazine-2,4,6-Triamine Hydrochloride] | 16.95 | decomposition hydroxylation dehydrogenation dehydrogenation double hydroxylation hydroxylation dehydrogenation | 29 | 29.12 | 18 ± 3 | 3570 ± 491 | 43300 | 1630 ± 301 | no or slight inhibition activity | 20 | < 15 | 7500 | 7500 | practically no viable | proliferative activity | 20 | 3000 ± 679 | active |
